For 49 compounds, EC50 results are on record in BindingDB's records for doi:10.7270/Q2251GJ9 (The Scripps Research Institute Molecular Screening Center, 2007).

The EC50 is the concentration needed to bring the measured effect to its halfway point. Low values mean a more potent agent, high ones a less potent agent.

In the first test the target is Sphingosine 1-phosphate receptor 1 (Homo sapiens, UniProt P21453). As to the kind of experiment: direct activation of human S1P1 – cell-based, agonist mode, 60K MLSMR set, dose response (AID 468).
Sequence of Sphingosine 1-phosphate receptor 1 (P21453 whole entry): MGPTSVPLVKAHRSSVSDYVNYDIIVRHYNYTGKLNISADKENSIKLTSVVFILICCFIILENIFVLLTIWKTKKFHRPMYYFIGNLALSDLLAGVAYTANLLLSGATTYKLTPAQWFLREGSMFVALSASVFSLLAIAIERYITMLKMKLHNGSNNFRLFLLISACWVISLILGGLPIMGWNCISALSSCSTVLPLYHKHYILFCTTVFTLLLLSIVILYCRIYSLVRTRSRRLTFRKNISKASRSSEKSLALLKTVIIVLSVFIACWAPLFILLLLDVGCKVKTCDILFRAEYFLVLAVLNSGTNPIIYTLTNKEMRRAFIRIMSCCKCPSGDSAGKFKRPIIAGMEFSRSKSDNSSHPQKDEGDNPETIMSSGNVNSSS
Details: not given
Consider `C=C(C)COc1ccc(-c2nc(N)nc(C)c2Oc2ccccc2OC)c(O)c1` [(6E)-6-[2-amino-5-(2-methoxyphenoxy)-6-methyl-1H-pyrimidin-4-ylidene]-3-(2-methylallyloxy)cyclohexa-2,4-dien-1-one], for which the midpoint of the response, the EC50, lay at 3.8 µM.
On the same count and under the same terms, the result for `COc1ccc(-c2n[nH]cc2-c2ccc3c(c2)OCCO3)c(O)c1` [(6E)-6-[4-(2,3-dihydro-1,4-benzodioxin-6-yl)-1,2-dihydropyrazol-3-ylidene]-3-methoxycyclohexa-2,4-dien-1-one] reads 0.986 µM; that for `CCOC(=O)CN(C(=O)CSc1nnc(-c2cccc(OC)c2)o1)c1ccc(F)cc1` [((4-Fluoro-phenyl)-{2-[5-(3-methoxy-phenyl)-[1,3,4]oxadiazol-2-ylsulfanyl]-acetyl}-amino)-acetic acid ethyl ester], 3.17 µM; that for `CC(=N)C(C#N)C(=O)CSc1nc2cc(Cl)ccc2s1` (centres undefined) [(E)-3-amino-2-[2-[(5-chloro-1,3-benzothiazol-2-yl)sulfanyl]acetyl]but-2-enenitrile], 15.6 µM.
On the same count and under the same terms, the result for `CC(=N)C(C#N)C(=O)CSc1nnc(SCc2ccc(Cl)cc2)s1` (centres undefined) [(E)-3-amino-2-[2-[[5-[(4-chlorobenzyl)thio]-1,3,4-thiadiazol-2-yl]thio]acetyl]but-2-enenitrile] reads 8.95 µM; that for `Cc1noc(/C=C/N(C)C)c1S(=O)(=O)N1CCN(c2ccccc2)CC1` [(E)-N,N-dimethyl-2-[3-methyl-4-(4-phenylpiperazin-1-yl)sulfonyl-1,2-oxazol-5-yl]ethenamine], > 95 µM.
Same read-out and setting: the value for `O=S(=O)(C/C(=C/CO)S(=O)(=O)c1ccccc1)c1ccccc1` [(Z)-3,4-bis(benzenesulfonyl)but-2-en-1-ol] was > 3 µM; that for `CC(=O)Nc1cc(OC(C)=O)c2nonc2c1OC(C)=O` [Acetic acid 7-acetoxy-5-acetylamino-benzo[1,2,5]oxadiazol-4-yl ester] was 7.53 µM; that for `CCN(C(=O)C1CCCCC1)c1nnc(-c2cccnc2)s1` [Cyclohexanecarboxylic acid ethyl-(5-pyridin-3-yl-[1,3,4]thiadiazol-2-yl)-amide] was 2.13 µM.
Compound `COCCN(C(=O)c1ccccc1)c1nnc(-c2cccnc2)s1` [MLS000032523] displayed a concentration giving a half-maximal response (EC50) of 6.68 µM.
Same read-out and setting: the value for `O=C(CCC(=O)N(Cc1ccco1)C(C(=O)NC1CCCC1)c1ccncc1)Nc1cccnc1` (centres undefined) [MLS000033292] was > 95 µM; that for `CC(C)(C)NC(=O)CSc1ncnc2c1nnn2Cc1ccccc1Cl` [MLS000034488] was 9.4 µM; that for `CCOC(=O)Nc1ccc2c(c1)N(C(=O)CCN(C)C)c1ccccc1S2` [MLS000038082] was 33.9 µM.
On the same count and under the same terms, the value for `Cc1ccc2[nH]c3c(NCc4ccco4)ncnc3c2c1` [MLS000040855] was 9.9 µM.
As to `CCCCOc1ncnc2c1[nH]c1ccccc12` [MLS000041483], a half-maximal effect (EC50) was put at 4.18 µM.
On the same count and under the same terms, the result for `COc1ccc(CCNc2ncnc3c2oc2ccccc23)cc1OC` [MLS000041708] reads 0.537 µM; that for `CCCC(=O)Nc1ccc2oc(-c3ccc(OC)c(Br)c3)nc2c1` [MLS000042482], 4.96 µM; that for `CCOc1ccccc1OCCCCCc1c(C)n[nH]c1C` [MLS000043342], 1.56 µM.
Still for that read-out and setting: the value for `Cc1cc(C(=O)Nc2sc(C)c(-c3ccc(F)cc3)c2C(N)=O)no1` [MLS000043467] was 6.79 µM.
Same read-out and setting: the result for `Cn1nc(CC(=O)Nc2ccc3c(c2)OCCO3)c2ccccc2c1=O` [MLS000047020] reads 5.94 µM; that for `O=C(Nc1ccc(-c2noc(CCc3ccccc3)n2)cc1)c1cccnc1` [MLS000047253], 3.6 µM.
For the compound `COc1ccc(-n2nc3ccc(NS(C)(=O)=O)cc3n2)cc1Cl` [MLS000049114], a half-maximal effect (EC50) was put at 0.148 µM.
On the same count and under the same terms, the result for `O=S(=O)(Nc1ccc2c(c1)OCCO2)c1ccc2oc3ccccc3c2c1` [MLS000051884] reads 7.68 µM; that for `CCN=c1scc(-c2ccc3c(c2)NC(=O)CO3)n1N=C1CCCC1` [MLS000054638], 8.6 µM; that for `CCOC(=O)c1c(C)[nH]c(C(=O)C(C)OC(=O)c2cccc(OCc3c(C)noc3C)c2)c1C` (centres undefined) [MLS000054923], 4.37 µM.
Still for that read-out and setting: the value for `COc1cc(C(=O)N2CCN(S(=O)(=O)c3ccc(C)cc3)CC2)ccc1OCc1c(C)noc1C` [MLS000056221] was > 95 µM; that for `CC(=O)Nc1ccccc1OCC(=O)c1cc(C)n(Cc2cccs2)c1C` [MLS000056239] was 0.202 µM; that for `CCCn1c(NC(=O)c2cccc(S(=O)(=O)N3CCCC3)c2)nc2ccccc21` [MLS000057540] was 8.82 µM.
`c1ccc2c(c1)oc1c(NCc3ccc4c(c3)OCO4)ncnc12` [MLS000057790] returned an EC50 of 5.6 µM.
`CCCC(=O)Nc1ccc(-c2nc3cc(C)ccc3o2)cc1` [MLS000061826] returned an EC50 of 5.96 µM.
Same read-out and setting: the value for `O=C(Nc1ccc(N2CCOCC2)c(Cl)c1)c1cccc(F)c1` [MLS000066209] was 1.23 µM.
Still for that read-out and setting: the value for `Cc1ccc2oc(-c3ccc(NC(=O)c4cccnc4)cc3)nc2c1` [MLS000068975] was 3.05 µM.
In turn, `CCN(C(=O)c1ccc(C(C)(C)C)cc1)c1nnc(Cn2nnc3ccccc32)s1` [MLS000072751] registered an EC50 of 1.49 µM.
Same read-out and setting: the value for `O=C(Nc1nc(-c2ccc3c(c2)OCO3)cs1)c1ccncc1` [MLS000073104] was 9.54 µM.
Still for that read-out and setting: the value for `Cc1ccc2c(c1)N(CC(=O)Nc1ccc3c(c1)OCCO3)C(=O)CO2` [MLS000074457] was > 95 µM.

The same test, now with this note: inactive by the depositor's call.
Take `CCc1ccc2c(COC(=O)c3n[nH]c4ccccc34)cc(=O)oc2c1` [(7-ethyl-2-oxochromen-4-yl)methyl 1H-indazole-3-carboxylate]: the EC50 turned out to be 10.6 µM.
Still for that read-out and setting: the value for `Cc1noc(/C=C/N(C)C)c1S(=O)(=O)N1CCc2ccccc21` [(E)-2-[4-(2,3-dihydroindol-1-ylsulfonyl)-3-methyl-1,2-oxazol-5-yl]-N,N-dimethyl-ethenamine] was 95 µM; that for `CC1=C(/C=C/C(C)=C/C=C/C(C)=C/C(=O)O)C(C)(C)CCC1` [ALL-TRANS-RETINOIC ACID] was 25.4 µM; that for `CC1Cc2cc(-c3csc(NC(=O)Cc4cccs4)n3)ccc2N1S(C)(=O)=O` (centres undefined) [MLS000027766] was 11.8 µM.
On the same count and under the same terms, the result for `Cc1ccccc1OCC(=O)Nc1ccc(N2CCN(C(=O)C(C)C)CC2)c(Cl)c1` [MLS000034491] reads 16.8 µM; that for `CC(=O)c1sc(NC(=O)C2(F)C(F)(F)C(F)(F)C(F)(F)C(F)(F)C2(F)F)nc1C` [MLS000040071], 30.4 µM; that for `CC(C)[C@H](NC(=O)OC(C)(C)C)c1nnc(SCC(=O)Nc2ccc(Br)cc2)o1` [MLS000040800], 14.7 µM.
The same measure, in the same setting: the value for `CC(C)OCCCNc1ncnc2c1[nH]c1ccccc12` [MLS000041327] was 14 µM; that for `COc1cccc(-c2nc(-c3ccc(NC(=O)c4cccnc4)cc3)no2)c1` [MLS000047254] was 26.1 µM.
Compound `CC(=O)Nc1ccc(S(=O)(=O)N2CCN(CCCOc3cc(C)ccc3C)CC2)cc1` [MLS000050317] registered an EC50 of 15.2 µM.
The same measure, in the same setting: the result for `N#C/C(=C/c1ccc(N2CCCCCC2)o1)c1ccc(F)cc1` [MLS000051438] reads 22.4 µM; that for `CN(Cc1cccs1)c1ncnc2sccc12` [MLS000056228], 13 µM.
Compound `Cc1csc(NC(=O)c2nc(-c3ccccc3)n(-c3ccccc3)n2)n1` [MLS000058347] returned an EC50 of 10.1 µM.
As for `COc1cccc(-c2csc(N3CCN(CC(=O)Nc4ccc5c(c4)OCO5)CC3)n2)c1` [MLS000070935], the response was half-maximal at 17 µM (EC50).
